{
  "source": "the supplement of paper PMC10307832",
  "test_in_all_cases": "relative viability (nuclei count vs DMSO), 5 days (fraction); higher = more cells survive",
  "key": {"[1]": {"compound": "CC1=C(C(=O)N2C=CSC2=N1)CCN3CCC(=C(C4=CC=CC=C4)C5=CC=C(C=C5)F)CC3", "outline": "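Lung cancer cell lines were seeded into 1536-well plates, kept overnight at 37 °C and pinned with five library-drug doses (not always all listed) spaced by √10. After 5 days, nuclei were Hoechst-stained, imaged at 4× and counted with MetaXpress. Viability is treated-well nuclei over vehicle-well nuclei, taken as a median across plates. Plates needed control CV below 25% and at least one doubling.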"}, "[2]": {"compound": "CC1=C(C(=O)N2C=CSC2=N1)CCN3CCC(=C(C4=CC=CC=C4)C5=CC=C(C=C5)F)CC3 + CCNC(=O)c1noc(-c2cc(C(C)C)c(O)cc2O)c1-c1ccc(CN2CCOCC2)cc1 [Luminespib] (partner 0.01 µM)", "outline": "(§1)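 After 5 days of treatment, lung cancer cells in 1536-well plates were fixed and stained in a single step (final 0.05% Triton X-100, 1% formaldehyde, 1 ug/ml Hoechst) and their nuclei counted on 4× images. Treatment had been applied by pin tool the day after seeding as one drug alone or as a fixed anchor-drug dose with five library-drug doses (not always all listed) in √10 steps. Relative viability is the nuclei count of treated wells divided by that of vehicle wells, and values are medians of duplicate plates.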"}, "[3]": {"compound": "CC1=C(C(=O)N2C=CSC2=N1)CCN3CCC(=C(C4=CC=CC=C4)C5=CC=C(C=C5)F)CC3 + COc1cc2c(Oc3ccc(NC(=O)C4(C(=O)Nc5ccc(F)cc5)CC4)cc3F)ccnc2cc1OCCCN1CCOCC1 [Foretinib] (partner 0.25 µM)", "outline": "as §1"}, "[4]": {"compound": "CC1=C(C(=O)N2C=CSC2=N1)CCN3CCC(=C(C4=CC=CC=C4)C5=CC=C(C=C5)F)CC3 + COc1cccc2cc(-c3nc([C@H]4CC[C@H](C(=O)O)CC4)n4ncnc(N)c34)[nH]c12 [OSI-027] (partner 0.5 µM)", "outline": "as §1"}, "[5]": {"compound": "CC1=C(C(=O)N2C=CSC2=N1)CCN3CCC(=C(C4=CC=CC=C4)C5=CC=C(C=C5)F)CC3 + Cc1cc(Nc2cc(N3CCN(C)CC3)nc(Sc3ccc(NC(=O)C4CC4)cc3)n2)n[nH]1 [Tozasertib] (partner 0.1 µM)", "outline": "as §1"}, "[6]": {"compound": "CC1=C(C(=O)N2C=CSC2=N1)CCN3CCC(=C(C4=CC=CC=C4)C5=CC=C(C=C5)F)CC3 + Cc1nc(Nc2ncc(C(=O)Nc3c(C)cccc3Cl)s2)cc(N2CCN(CCO)CC2)n1 [Dasatinib] (partner 0.075 µM)", "outline": "as §1"}, "[7]": {"compound": "CC1=C(C(=O)N2C=CSC2=N1)CCN3CCC(=C(C4=CC=CC=C4)C5=CC=C(C=C5)F)CC3 + N=C(N)NC(=N)NCCc1ccccc1 [Phenformin] (partner 250 µM)", "outline": "as §1"}},
  "data": [
    {"cell line": "NCI-H1623", "values": [
      {"measurement": "relative viability", "setting": "[1]; 0.08 µM", "value": 0.887},
      {"measurement": "relative viability", "setting": "[1]; 0.253 µM", "value": 1.03},
      {"measurement": "relative viability", "setting": "[1]; 0.8 µM", "value": 1.02},
      {"measurement": "relative viability", "setting": "[1]; 2.53 µM", "value": 0.96},
      {"measurement": "relative viability", "setting": "[1]; 8 µM", "value": 0.87},
      {"measurement": "relative viability", "setting": "[2]; first compound 0.08 µM", "value": 0.563},
      {"measurement": "relative viability", "setting": "[2]; first compound 0.253 µM", "value": 0.631},
      {"measurement": "relative viability", "setting": "[2]; first compound 0.8 µM", "value": 0.521},
      {"measurement": "relative viability", "setting": "[2]; first compound 2.53 µM", "value": 0.472},
      {"measurement": "relative viability", "setting": "[2]; first compound 8 µM", "value": 0.35},
      {"measurement": "relative viability", "setting": "[3]; first compound 0.08 µM", "value": 0.632},
      {"measurement": "relative viability", "setting": "[3]; first compound 0.253 µM", "value": 0.968},
      {"measurement": "relative viability", "setting": "[3]; first compound 0.8 µM", "value": 0.886},
      {"measurement": "relative viability", "setting": "[3]; first compound 2.53 µM", "value": 0.819},
      {"measurement": "relative viability", "setting": "[3]; first compound 8 µM", "value": 0.826},
      {"measurement": "relative viability", "setting": "[4]; first compound 0.08 µM", "value": 0.416},
      {"measurement": "relative viability", "setting": "[4]; first compound 0.253 µM", "value": 0.411},
      {"measurement": "relative viability", "setting": "[4]; first compound 0.8 µM", "value": 0.431},
      {"measurement": "relative viability", "setting": "[4]; first compound 2.53 µM", "value": 0.436},
      {"measurement": "relative viability", "setting": "[4]; first compound 8 µM", "value": 0.433},
      {"measurement": "relative viability", "setting": "[5]; first compound 0.08 µM", "value": 0.466},
      {"measurement": "relative viability", "setting": "[5]; first compound 0.253 µM", "value": 0.434},
      {"measurement": "relative viability", "setting": "[5]; first compound 0.8 µM", "value": 0.446},
      {"measurement": "relative viability", "setting": "[5]; first compound 2.53 µM", "value": 0.475},
      {"measurement": "relative viability", "setting": "[5]; first compound 8 µM", "value": 0.419},
      {"measurement": "relative viability", "setting": "[6]; first compound 0.08 µM", "value": 0.473},
      {"measurement": "relative viability", "setting": "[6]; first compound 0.253 µM", "value": 0.57},
      {"measurement": "relative viability", "setting": "[6]; first compound 0.8 µM", "value": 0.5},
      {"measurement": "relative viability", "setting": "[6]; first compound 2.53 µM", "value": 0.536},
      {"measurement": "relative viability", "setting": "[6]; first compound 8 µM", "value": 0.549},
      {"measurement": "relative viability", "setting": "[7]; first compound 0.08 µM", "value": 0.706},
      {"measurement": "relative viability", "setting": "[7]; first compound 0.253 µM", "value": 0.618},
      {"measurement": "relative viability", "setting": "[7]; first compound 0.8 µM", "value": 0.607},
      {"measurement": "relative viability", "setting": "[7]; first compound 2.53 µM", "value": 0.564},
      {"measurement": "relative viability", "setting": "[7]; first compound 8 µM", "value": 0.594}
    ]}
  ]
}
